Reference: PMC9287337 (Scientific Reports, 2022)
Where two headings read alike, the source gives them in different places.

Legend:
PI3K enzyme = assay: PI3K ELISA on PI3K immunoprecipitated from treated cells; type: cell-based, mouse; details: 10 µM, 15 min; for Amount of PIP3 produced by PI3K enzyme: control 0.61 pmol
Description: PI3K enzyme was immunoprecipitated and processed in a PI3K ELISA (Fig. 7B). […] The enzyme activity is expressed as the amount of product (PIP3) generated in each sample by the PI3K enzyme per minute of reaction.
C2C12 cells were seeded in 35-mm dishes at 7 × 10^4 cells/mL and incubated at 37 °C in 5% CO2 to reach 80% confluency. […] Cells (~ 10^6) per treatment were collected to prepare whole cell lysates followed by exposure to three freeze/thaw cycles in liquid nitrogen. The samples were centrifuged and PI3K enzyme was immunoprecipitated with a mouse monoclonal anti-PI3K p55 γ antibody ((E-9), Santa Cruz Biotechnology, Dallas, TX, USA) for 1 h at 4 °C with gentle rocking and the immune complexes were collected overnight on a rocking platform at 4 °C with Dynabeads™ Protein A (Life Technologies, Carlsbad, CA, USA). The next day, the immunoprecipitated PI3K enzyme was collected by centrifugation processed for a PI3K ELISA (Echelon Biosciences, Salt Lake, City, UT, USA) according to the manufacturer’s instructions. Standard solutions of PIP3 (0, 0.22, 0.67, 2, 6, 18, and 54 pmol) were added to kinase reactions using recombinant PI3K enzyme (Echelon Biosciences, Salt Lake, City, UT, USA) and used to generate a standard curve for production of PIP3. The optical density of the PIP3 standards and the reactions containing immunoprecipitated PI3K from treated samples was measured at 450 nm.

C2C12 cells = assay: RealTime-Glo MT cell viability assay; type: cell-based, mouse; details: for IC50: non-linear regression, read-out: IC50 (concentration at which cell viability is reduced by 50%); for Increase in cell viability over control / Decrease in cell viability compared with control: 24 h
Description: To first determine how these novel compounds effect the health of C2C12 cells and to establish the range of subtoxic concentrations for future studies, cell viability assays were carried out. Serum-starved C2C12 cells were exposed to increasing concentrations (0.01–1000 µM) of SY-LB-35 and SY-LB-57 for 24 h. Exposure to Triton X-100 (125 µM) is toxic to cells and was used as a negative control for cell viability. Following the 24-h exposure period, the MT Cell viability substrate was added to the cultures. Only viable cells can reduce the substrate and, thereby, generate a luminescent signal. Any decrease in luminescence was considered an indication of cell death or toxicity.
C2C12 cells (100 µL) were seeded in a 96-well plate at 5 × 10^5 cells/mL and incubated overnight in complete growth media to achieve 80% confluency followed by serum-starvation for 16–18 h.
Next, reagents from the RealTime-Glo™ MT Cell Viability Assay Kit (Promega, Madison, WI, USA) were diluted in SS medium and used according to manufacturer’s protocol. Cellular luminescence was measured using the FilterMax F5 Multi-mode Microplate Reader (Molecular Devices, San Jose, CA, USA). Data from three independent experiments with individual experiments carried out in triplicate was determined and reported as a percentage of control.

[1] = system: p-Smad1/5/8 (Smad phosphorylation); assay: Western blot of p-Smad normalized to total Smad; type: cell-based; details: Mus musculus, 0.5 h, 30 min, read-out: p-Smad level, percent of control
Description: To investigate whether the new indolyl-benzimidazole compounds activate BMP receptor-dependent signaling pathways, the levels of p-Smad in serum-starved C2C12 cells, treated for 30 min with SY-LB-35 and SY-LB-57, were assessed by Western blot analysis. Whole cell lysates of treated C2C12 cells were probed for p-Smad using phospho-specific anti-Smad antibodies. p-Smad levels were normalized against total Smad levels.
(§1) C2C12 cells (3 mL) were seeded into 35 mm dishes at 7.5 × 10^4 cells/mL in complete growth medium, incubated to reach 80% confluence and serum-starved for 16–18 h. […] Thereafter, the cultures were washed with ice-cold 1X TBS for 2 min. Lysis Buffer (Cell Signaling Technology, Danvers, MA, USA) supplemented with 1 mM PMSF (phenylmethylsulphonyl fluoride) was added to the cultures and whole cell lysates were prepared.
(§2) Laemmli sample buffer (4X) was added to the whole cell lysates (20 µg) to a final concentration of 1X and heated at 100 °C for 5 min. The samples were immediately cooled on ice for 5 min and centrifuged at 9500 rpm for 2 min at RT. The samples and the Precision Plus Protein Standard (5 µL; Bio-Rad, Hercules, CA, USA) were loaded on 12% SDS polyacrylamide gels. Protein was separated using the Bio-Rad Mini Protean II Gel Electrophoresis System at 135 V. Meanwhile, 0.2 µm nitrocellulose membranes were pre-incubated in cold 1X Transfer Buffer (10 mM Tris/2.5 mM glycine/20% methanol) for at least 30 min. Next, the separated proteins were transferred at 100 V onto the pre-equilibrated nitrocellulose membranes for 1 h in Transfer Buffer, followed by blocking in 5% BSA/0.1% Tween 20/1X TBS for 30 min. The membranes were incubated overnight at 4 °C with the desired primary rabbit monoclonal antibody (p-Smad1/5(S463/465)/9(S465/467), Smad1 (D5907) XP®, p-Akt (Ser473) (D9E) XP®, or Akt (pan) (C67E7), p-SAPK/JNK (Thr183/Tyr185), SAPK/JNK, β-actin (Cell Signaling Technologies, Danvers, MA, USA)) or rabbit polyclonal antibody (phospho-PI3 Kinase p85 (Tyr458)/p55 (Tyr199) antibody (Cell Signaling Technologies, Danvers, MA, USA), p-p38 MAPK, p38 MAPK, p-ERK1, ERK1/2) (Abclonal, Woburn, MA, USA)) in Antibody Dilution Buffer (1% BSA/0.1% Tween 20/1X TBS) and then washed with 1X TBST (0.1% Tween 20/1X TBS) three times for 15 min. HRP-conjugated Goat Anti-Rabbit IgG secondary antibody (Santa Cruz Biotechnology, Inc., Dallas, TX, USA) in Antibody Dilution Buffer was added to the membranes for 1 h at RT followed by three 15-min washes with 1X TBST. Finally, the blots were developed using SuperSignal ™ West Femto HRP Substrate solutions (Thermo Scientific, Rockford, IL, USA) and analysed using the Omega Lum™ G Imaging System (San Francisco, CA, USA). Quantification of chemiluminescent signals was carried out using ImageJ (Image Processing and Analysis in Java 1.8.0_112).

[2] = system: type I BMP receptor-dependent p-Smad; assay: Western blot of p-Smad in presence or absence of Dorsomorphin; type: cell-based, mouse; details: 1 µM, 30 min; for p-Smad level, DM(+): Dorsomorphin 10 µM pretreatment 1 h; for p-Smad level, DM(−): without Dorsomorphin
Description: Total whole cell lysates were prepared and used for Western blot analysis of Smad phosphorylation using anti-p-Smad antibodies.
as §1, §2

| SMILES | PIP3 produced, higher compared to control untreated cells (PI3K enzyme) | Amount of PIP3 produced by PI3K enzyme (PI3K enzyme) | Non-toxic / safe concentrations (C2C12 cells; C2C12, 24 h) | IC50 (C2C12 cells; C2C12, 24 h) | IC50 (C2C12 cells; Mus musculus, C2C12, 24 h) | activity at 0.01 µM [1] | activity at 0.1 µM [1] | activity at 1 µM [1] | activity at 10 µM [1] | p-Smad level, DM(+) [2] | p-Smad level, DM(−) [2] | Increase in cell viability over control (C2C12 cells; 0.01 µM) | Increase in cell viability over control (C2C12 cells; 0.1 µM) | Increase in cell viability over control (C2C12 cells; 1 µM) | Decrease in cell viability compared with control (C2C12 cells; 100 µM) | Decrease in cell viability compared with control (C2C12 cells; 1 mM) |
| --- | --- | --- | --- | --- | --- | --- | --- | --- | --- | --- | --- | --- | --- | --- | --- | --- |
| COc1ccc2[nH]c(-c3nc4ccccc4[nH]3)cc2c1 [SY-LB-57] | 26% | 0.77 pmol | ≤ 10 µM | 808 µM | 808 µM | 234% | 316% | 276% | 357% | 111% | 172% |  |  |  |  |  |
| Oc1ccc2[nH]c(-c3nc4ccccc4[nH]3)cc2c1 [SY-LB-35] | 26% | 0.77 pmol |  | 401 µM | 401 µM | 150% | 170% | 282% | 188% | 112% | 315% | 150 % over control | 150 % over control | 120 % over control | 30 % decrease | 80 % decrease |
